Values joined by “and” are separate entries in the source; they are usually repeats but may differ in a detail not shown here. Identical values can stand only once. Active and inactive are the calls of the source.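 Rule for the calls: active = compounds giving half or more protection of infected cells from virus-caused growth loss, again on retest; inactive = the rest.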 Where a SMILES comes first, the peptide text is derived from it. [ ]: non-standard residue; d: D form. The star is where a group is joined. Phe(4-NO2) = N[CH](Cc1ccc([N+](=O)[O-])cc1)C(=O)O; Boc = CC(C)(C)OC(=O)* Some results are limits rather than exact numbers.

The results in this text go back to PubChem BioAssay AID179 (DTP/NCI, 2004).

For this assay, the system named is CEM cells HIV-1 protection, formazan growth assay. The assay can be described thus: NCI AIDS Antiviral Assay. Particulars: for IC50: measured here: growth of uninfected CEM cells. The method, boiled down: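 Protection of CEM cells against HIV-1 was scored from cell growth (soluble formazan) across five concentrations, with parallel uninfected cells. Lack of protection may reflect toxicity.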

As for `Cc1c(O)nc(-n2[nH]c3c(c2=O)CCCC3)[nH]c1=O`, the EC50 is over 200 µM and the IC50 was over 200 µM.

On to `O=c1c(O)c(-c2ccccc2)n(O)c2ccc(Cl)cc12`, for which the EC50 was over 18.2 µM and the IC50 was over 18.2 µM.

Consider `Cc1nc2nc3n(c(=O)c2nc1C)CCS3`, for which the outcome was inactive.

Take `CC(C)C1=C[C@H](c2ccccc2)c2ccccc2C1C(C#N)(C#N)C(C)C` (stereo partly specified): the EC50 was over 1.48 µM and the IC50 is over 1.48 µM.

Regarding `Cc1sc(/N=C/C2=C(O)CC(C)(C)CC2=O)nc1-c1ccccc1`, the EC50 was over 200 µM and the IC50 is 64.6 µM.

`COc1ccc2c(c1)CC1c3[nH]c4ccccc4c3CCN1C2` (stereo unspecified): the EC50 was 56.2 µM and > 102 µM; the IC50 is 102 µM and 46.8 µM.

In the case of `COc1ccc(N=C(C)c2ccncc2)cc1`, the EC50 was over 200 µM and the IC50 is 10.5 µM.

Regarding `O=S1c2ccccc2N=C(c2ccc3ccccc3c2)CC1c1ccccc1F` (stereo unspecified), the EC50 is over 18.2 µM and the IC50 was over 18.2 µM.

`Cc1ccc(NC(=O)C(=O)Cc2cccc[n+]2[O-])cc1C`: the EC50 is over 91.2 µM and the IC50 was over 91.2 µM.

For the compound `CNc1nc(OC)c2c(n1)[n+](C)cn2C`, the EC50 was over 200 µM and the IC50 was found to be 61.7 µM.

For the compound `COc1ccc(NC(=S)/C(=C(\[O-])c2ccc([N+](=O)[O-])cc2)[n+]2ccc(C(C)C)cc2)cc1`, the EC50 is over 200 µM and the IC50 was over 100 µM.

As to `CC(C)(C)c1ccc(CN2CCN(C(c3ccccc3)c3ccc(Cl)cc3)CC2)cc1` (stereo unspecified), the EC50 was over 200 µM and the IC50 is 115 µM.

Regarding `C=C1C(=O)O[C@@H]2C[C@@H](C)[C@@H]3C=CC(=O)[C@@]3(C)[C@@H](OC(=O)CCCC(=O)O[C@H]3[C@@H]4C(=C)C(=O)O[C@@H]4C[C@@H](C)[C@@H]4C=CC(=O)[C@]43C)[C@H]12`, the EC50 was over 5.75 µM and the IC50 is 0.407 µM.

Consider `COc1ccc(OC)c2c(Nc3ccc(S(=O)(=O)O)c4cc(S(=O)(=O)O)cc(S(=O)(=O)O)c34)cc(C)nc12`, for which the EC50 is over 200 µM and the IC50 is over 200 µM.

As to `CC(=O)N1CCC2(C=Nc3ccccc32)CC1`, the EC50 is over 22.9 µM and the IC50 is over 22.9 µM.

For `O=S(=O)(O)CC(S(=O)(=O)O)S(=O)(=O)O`, the EC50 is over 200 µM and the IC50 is over 200 µM.

Take `CCN(CC)CCNc1ccc(Cl)cc1N`: the EC50 is over 200 µM and the 50% inhibitory concentration (IC50) was determined as 39.8 µM.

For `Cc1cc(NS(=O)(=O)c2ccc(Nc3c4ccccc4nc4c(C(N)=O)cccc34)cc2)no1`, the EC50 was over 200 µM and the IC50 is 10.7 µM.

Turning to `O=C1/C(=C\c2ccccn2)c2ccccc2N1Cc1ccccc1`, the EC50 was over 22.9 µM and the IC50 came to 12.6 µM.

Regarding `CC(O)CCNc1nnc2c3ccccc3n(C)c2n1` (stereo unspecified), the EC50 is over 200 µM and the IC50 was over 200 µM.

Regarding `Cc1c(-c2coc(-c3ccc(Cl)cc3)n2)c(=O)n(-c2ccccc2)n1C`, the EC50 is over 51.3 µM and the IC50 is over 51.3 µM.

For the compound `N/C(=N\N=C\c1ccccn1)NO`, the EC50 was over 200 µM and the IC50 was 33.1 µM.

In the case of `O=[N+]([O-])c1ccc(C2SCc3nc4ccccc4n32)cc1` (stereo unspecified), the EC50 was over 55 µM and the IC50 is 33.1 µM.

Turning to `CC(=O)N(C(C)=O)n1c(-c2ccccc2)n[nH]c1=O`, the EC50 was over 200 µM and the IC50 was over 200 µM.

`c1csc(C(NC2=NCCO2)C2CC2)c1` (stereo unspecified): the EC50 was over 200 µM and the IC50 is 166 µM.

Regarding `CC1(C)OC(=O)C(=Cc2ccc(Br)cc2)C(=O)O1`, the EC50 is over 417 µM and the IC50 stood at 257 µM.

In the case of `CC(=O)C1(C)CCC2C3C=C(C)C4=CC(=O)CCC4(C)C3CCC21C` (stereo unspecified), the EC50 is over 117 µM and the IC50 was determined as 16.2 µM.

For `CCc1ccc(/C(C#N)=C/c2ccc(N(C)CCC#N)cc2)cc1`, the EC50 was over 200 µM and the IC50 was found to be 3.55 µM.

On to `CCOC(=O)C(NC(=O)c1ccccc1)(c1ccc(S(=O)(=O)Nc2onc(C)c2C)cc1)C(F)(F)F` (stereo unspecified), for which the EC50 was over 200 µM and the IC50 is over 200 µM.

Regarding `O=C(Cn1cc(Br)c(=O)[nH]c1=O)c1ccc(-c2ccccc2)cc1`, the EC50 is over 200 µM and the IC50 was over 200 µM.

Consider `CC(=O)Oc1ccc(CCC(=O)O[C@H](C(=O)O)[C@H](OC(=O)CCc2ccc(OC(C)=O)c(OC(C)=O)c2)C(=O)O)cc1OC(C)=O`, for which the EC50 is over 53.7 µM and the IC50 came out at 30.2 µM.

`O=C1C(=O)c2ccccc2C(O)=C1C(C1=C(O)c2ccccc2C(=O)C1=O)c1ccc(Cl)cc1`: the EC50 was over 200 µM and the IC50 came to 37.2 µM.

As to `CC(C)(C)C(=O)/C=C/c1ccc(Cl)cc1`, the EC50 is over 32.4 µM and the IC50 was over 32.4 µM.

In the case of `CCCc1cc(=O)oc2c3c(cc(OC(C)C)c12)O[C@H](C)[C@H](C)[C@@H]3O`, the EC50 is over 200 µM and the IC50 worked out at 49 µM.

As for `CC1=C/C(=C(\c2cc(C)c(O)c(Br)c2)c2ccccc2S(=O)(=O)O)C=C(Br)C1=O`, the result was inactive.

For `COc1cccc(/C(Cl)=C(\C=O)c2cccc(OC)c2)c1`, the EC50 was over 17.4 µM and the IC50 stood at 9.12 µM.

Turning to `CCOC(=O)CCC(NC(=O)C(Cc1ccc([N+](=O)[O-])cc1)NC(=O)OC(C)(C)C)C(=O)NC(CCC(=O)OCC)C(=O)OCC` (stereo unspecified) (Boc-[Phe(4-NO2)]-Glu(OEt)-Glu(OEt)-OEt; configuration not given here), the EC50 is over 200 µM and the IC50 was found to be 9.77 µM.

As to `Cc1ccc(C)c(NC(=O)C(=O)CC(=O)c2cccc3ccccc23)c1`, the EC50 was over 105 µM and the IC50 is over 105 µM.

`O=c1n(-c2ccccc2)c(=O)n2n1C1C=CC2C2C(C1)C2(Cl)Cl` (stereo unspecified): the outcome was inactive.

For the compound `Cc1cc(N(CCC#N)CCC#N)ccc1/C(N=Nc1ccc([N+](=O)[O-])cc1)=N\NC(=O)c1ccccc1`, the EC50 is over 200 µM and the IC50 was 16.2 µM.

As to `NC(CO)C(=O)NC(CO)C(=O)NC(Cc1ccc(O)cc1)C(=O)NC(CO)C(=O)NC(CO)C(=O)O` (stereo unspecified) (H-SSYSS-OH; configuration not given here), the EC50 is over 93.3 µM and the IC50 was over 93.3 µM.

Take `O=C1C(c2ccccc2)CS(=O)(=O)CC1c1ccccc1` (stereo unspecified): the EC50 is over 120 µM and the IC50 stood at 36.3 µM.

For the compound `C#CC1(O)c2ccccc2C(=O)c2ccccc21`, the outcome was inactive.

Take `COc1cc2c(cc1OC)C(=O)N1CCCC1C(=O)S2` (stereo unspecified): the result was inactive.

With `Brc1c2nc3ccccc3nc2n2ccc3ccccc3c12`, the EC50 is over 28.8 µM and the IC50 was over 28.8 µM.

For the compound `CCOC(=O)c1ccc(CSc2ccccc2)cc1`, the EC50 was over 26.3 µM and the IC50 is over 26.3 µM.

In the case of `O=S1(=O)N2CN3CN(C2)CN1C3`, the outcome was inactive.

Turning to `CC(C)(C)C1CCC(=O)/C(=C/CC2CC(=O)N(c3ccccc3)C(=O)C2)C1` (stereo unspecified), the EC50 is over 200 µM and the concentration for half-maximal inhibition (IC50) stood at 11.2 µM.

Consider `CCOc1ccccc1/C=C1\NC(=O)N(/C=C2\C(=O)Oc3ccccc3C2=O)C1=O`, for which the EC50 is over 200 µM and the IC50 came to 87.1 µM.

In the case of `[N-]=[N+]=Nc1c(Cc2ccccc2)c(=O)oc2ccccc12`, the EC50 is over 200 µM and the IC50 came out at 32.4 µM.

With `CCNC(=S)NCCc1c[nH]c2ccccc12`, the EC50 was over 200 µM and the IC50 was determined as 186 µM.

For `COc1cc(N=Nc2ccccc2C(=O)O)cc(/C=N/NC(=O)c2cccnc2)c1O`, the EC50 is over 12.3 µM and the half-inhibitory concentration (IC50) is over 12.3 µM.

In the case of `COCN1CCC2N(COC)CCC3N(COC)CCC1N23` (stereo unspecified), the outcome was inactive.

As to `CN1C(c2ccccc2)N1C` (stereo unspecified), the EC50 was over 1700 µM and the IC50 is over 1700 µM.

As for `Cc1ccc2nc(CN3CCCCC3)cc(=O)n2c1`, the EC50 was over 151 µM and the IC50 is over 151 µM.

For the compound `O=C(O)CCC(=O)c1ccc2c(c1)C(C(=O)O)CC2` (stereo unspecified), the EC50 was over 200 µM and the IC50 was over 200 µM.

For the compound `COc1ccc(OC)c(C(O)C(C)NC(C)(C)C)c1` (stereo unspecified), the EC50 is over 200 µM and the IC50 was over 200 µM.

As to `COc1nc(NC2OC(COC(C)=O)C(OC(C)=O)C(OC(C)=O)C2OC(C)=O)c(N=CC=Nc2c(NC3OC(COC(C)=O)C(OC(C)=O)C(OC(C)=O)C3OC(C)=O)nc(OC)n(C)c2=O)c(=O)n1C` (stereo unspecified), the result was inactive.

As to `CCCCNC(=S)/C(C#N)=C1\Nc2ccccc2O1`, the EC50 is over 200 µM and the IC50 amounted to 32.4 µM.

In the case of `[N-]=[N+]=NC1CC(n2cc(Cc3cccc(OCc4ccccc4)c3)c(=O)[nH]c2=O)OC1CO` (stereo unspecified), the result was inactive.

Take `O=S(=O)(O)c1cccc(N=Nc2ccc(N=Nc3ccc(Nc4ccccc4)c4c(S(=O)(=O)O)cccc34)c3ccccc23)c1`: the EC50 was 155 µM and the IC50 was over 200 µM.

For `Cc1ccc(S(=O)(=O)N(CCC(=O)O)c2ccccc2)cc1`, the EC50 is over 200 µM and the IC50 was over 200 µM.

Regarding `CCOC(=O)C(=CNc1ccc(N(C2=NCC(C)S2)c2ccc(F)c(Cl)c2)cc1)C(=O)OCC` (stereo unspecified), the outcome was inactive.

Take `O=c1c2cccnc2nc2ccc3c[nH][nH]c3c12`: the EC50 is over 200 µM and the IC50 turned out to be 87.1 µM.

Regarding `CC(=Nc1ccccc1C(=O)[O-])c1c([O-])ccc2c(C)cc(=O)oc12.[Ni+2].[OH3+]`, the EC50 is over 2.51 µM and the IC50 was over 2.51 µM.

As for `OC[C@H]1N=C(c2cccs2)OC1c1ccccc1` (stereo partly specified), the EC50 was over 200 µM and the IC50 was over 200 µM.

With `O=c1c(O)c(-c2ccccc2)oc2c(CP(=O)(O)O)cccc12`, the EC50 is over 200 µM and the IC50 is 162 µM.

On to `N#CCCN(CCO)CCO`, for which the EC50 is over 200 µM and the IC50 was over 200 µM.

With `CN(C)c1ccc2nc3c(C(=O)O)cc(=O)c(O)c-3oc2c1`, the EC50 was over 100 µM and the IC50 was 13.8 µM.

On to `CCOP(C)(=O)C(Nc1ccc(F)cc1)c1ccc(F)cc1` (stereo unspecified), for which the EC50 was over 200 µM and the IC50 came to 166 µM.

Consider `Oc1ccccc1C1C=C(c2ccccc2)NC(N2CCCCC2)=C1c1nc2ccccc2[nH]1` (stereo unspecified), for which the outcome was inactive.

As a reminder, the EC50 is the concentration that produces a half-maximal response. Broadly, the IC50 is the concentration that inhibits the measured activity by half. Low readings indicate higher potency, high ones lower potency.
